In patent US5863889A, “ICAM-1/LFA-1 short-chain peptides and method of using same” (The University of Kansas, priority 1996, dated 1999):

What was measured:
Molt3 cells [1] = assay: Homotypic adhesion assay (MDHC-induced clumping of T-cells); format: cell-based, human; parameters: key to Homotypic Adhesion Amount: Any sample having a score of "+++" or "++++" is considered to have a significant ability to modulate T-cell binding interaction; Any sample having a score of "+++" or "++++" is considered to have a significant ability to modulate T-cell binding interaction; details: 10 μM MDHC
Procedure: As before, the T-cells were Molt3 cells prepared in RPMI 1640 growth medium according to Example 2. An approximate 7 ml aliquot of the growth medium was centrifuged (Jouan Model GT422 at 1400 rpm for 6.5 minutes), and the supernatant fluid was decanted. The pellet was resuspended in the supernatant fluid at titer of about 1×10^6 cells/ml, with the excess supernatant fluid being retained for future resuspension of the peptides.
A 228 nmol quantity of the LJCRF-1 (Sequence ID No. 6) peptide described in Table 1 was diluted with the supernatant fluid to a 500 μl final volume, and filtered in microcentrifuge filter tubes (0.22 micron filter; 3500 rpm for 6 minutes). Serial dilution of the filtered peptide with supernatant fluid was conducted to yield five 125 μl peptide solutions to give respective concentrations of about 115 μM, 230 μM, 460 μM, 910 μM, and 1.82 mM. At each concentration, a 125 μl portion of the cell suspension was pipetted into each 125 μl portion of the peptide solutions to yield combined samples having a 250 μl volume. The 250 μl samples were seeded into individual wells in a 48-well tissue culture grade plate (from Costar of Cambridge, Md.) and incubated at 37° C. for 30 minutes. Each sample received 5 μl of 2,5-methyl dihydroxy cinnamate ("MDHC") for a 10 μM final concentration, and was subsequently incubated for about 10 hours at 37° C. MDHC induces intercellular clumping of human T-cells (Tibbetts, Butler, and Benedict, submitted) by activating the LFA/ICAM binding interaction between respective cells.
Pictures were taken of five random fields per sample using an Olympus photomicroscope having a 0.8 mm field at 400×magnification, and a 3.2 mm field of view at 100×magnification. The amount of clumping observed was quantified by determining the mean number of clumps per field ± a standard error.
FIGS. 5, 6, and 7 replicate photographs taken from exemplary peptide assays. FIG. 5 is a photograph of the control sample having no peptides and no MDHC added, from which essentially no clumping of cells is observed. […] Any sample having a score of "+++" or "++++" is considered to have a significant ability to modulate T-cell binding interaction. This is similar to results obtained by incubating similarly treated cells with antibody against either LFA or ICAM.
The homotypic adhesion assay assesses the actual ability of a candidate peptide to modulate the ability of T-cells to adhere with one another.

Molt3 cells [2] = assay: Cell metabolic assay (MTT); format: cell-based
Procedure: After taking the photographs in Example 3 (and in some instances no photographs were taken), cell metabolic activity was assessed by an MTT assay. A 37.5 μl portion of MTT dye (purchased from SIGMA of St. Louis, Mo.), i.e., 3-[4,5-dimethyl thiazole-2yl]-2, 5- diphenyl tetrazolium bromide; thiazolyl blue) was added to each well, and incubated with the cells at 37° C. for about six hours. After incubation, a 250 μl quantity of a MTT solubilization solution (of a type that may be purchased from either Fischer Scientific of St. Louis, Mo. or BCD Labs of Lawrence, Kans.) was added to each well, and incubated with the cells at room temperature overnight. In the morning, the spectrophotometric absorption of each plate was determined at 570 nm in a microplate ELISA reader manufactured by Cambridge Technologies of Water-town, Mass., in order to assess cell viability as an indicator of potential peptide toxicity.

SC-3-111: ICAM-1 based short-chain peptide, Sequence ID No. 10 (QTSVSPSKVI)
Homotypic Adhesion Effect (Molt3 cells [1]; peptide 230 μM): Block | Homotypic Adhesion Effect (Molt3 cells [1]; peptide 460 μM): Block | Homotypic Adhesion Amount (Molt3 cells [1]; peptide 910 μM): ++++ | Homotypic Adhesion Effect (Molt3 cells [1]; peptide 910 μM): Block | Homotypic Adhesion Amount (Molt3 cells [1]; peptide 1820 μM): +++ | Homotypic Adhesion Effect (Molt3 cells [1]; peptide 1820 μM): Block | MTT % Viability (Molt3 cells [2]; peptide 230 μM): 93% | MTT % Viability (Molt3 cells [2]; peptide 460 μM): 95% | MTT % Viability (Molt3 cells [2]; peptide 910 μM): 89% | MTT % Viability (Molt3 cells [2]; peptide 1820 μM): 69%
